A short description of series [1]: 1H NMR competition of dodecamethylbambus[6]uril-HCl complex with tetrabutylammonium bromide, association constant. The class given is binding. Particulars: CD3OD:CDCl3=2:1, equimolar mixture, overall concentration 5 mM. As to the method: (§1) Equimolar mixture of dodecamethylbambus[6]uril-HCl complex and tetrabutylammonium bearing bromide, iodide, and tetrafluoroborate anions was dissolved in the mixture of CD3OD:CDCl3=2:1 to obtain solution in which overall concentration of dissolved solids was 5 mM. In all cases obtained ^1H NMR spectrum was identical with the spectrum of corresponding complex (see Example 20-22). As signals corresponding to dodecamethylbambus[6]uril-HCl complex were not observed the value of association constants for all complexes was calculated to be higher than 5×10^4 M^−1.

Series [2] in a line: 1H NMR competition of dodecamethylbambus[6]uril-HCl complex with tetrabutylammonium iodide, association constant. The series is classed as binding. Particulars: CD3OD:CDCl3=2:1, equimolar mixture, overall concentration 5 mM. As to the method: as §1
A short description of series [3]: 1H NMR competition of dodecamethylbambus[6]uril-HCl complex with tetrabutylammonium tetrafluoroborate, association constant. The series is classed as binding. The following applies: CD3OD:CDCl3=2:1, equimolar mixture, overall concentration 5 mM. As to the method:
as §1

A short description of series [4]: Solubility of anion free macrocycle in studied solvent systems. The class given is physicochemical. The following applies: anion free form; chloroform, methanol, DMSO, acetonitrile, water or the mixtures of these solvents. On the procedure: Dodecamethylbambus[6]uril-HI complex (0.5 g) was dissolved in the mixture of chloroform (50 ml) and methanol (50 ml). 30% H2O2 (0.25 ml) was added and the solution was stirred at room temperature for 24 h. The resulting white precipitate was collected by filtration and washed with equimolar mixture of chloroform and methanol. […] When tetrabutylammonium bearing bromide, iodide, and tetrafluoroborate anions is added to the suspension of obtained white powder in equimolar mixture of chloroform and methanol the immediate formation of transparent solution was observed. ^1H NMR spectra of the solutions correspond to the spectra of the complex between dodecamethylbambus[6]uril and corresponding anion.
Titanium dioxide powder (Aeroxide P25, typically 0.1 mg) was suspended in a solution of dodecamethylbambus[6]uril-HI complex (5.0 mM) in acetonitrile/water (1:1, 0.5 mL) in a standard quartz UV cuvette. The mixture was purged with oxygen for 5 min and irradiated at either wave lengths 254 or 366 nm. After 4 h white precipitated of anion free dodecamethylbambus[6]uril was obtained in 87% yield. […]

For the compound `CN1C(=O)N(C)[C@@H]2[C@H]1N1CN3C(=O)N(CN4C(=O)N(CN5C(=O)N(CN6C(=O)N(CN7C(=O)N(CN2C1=O)[C@@H]1[C@H]7N(C)C(=O)N1C)[C@@H]1[C@H]6N(C)C(=O)N1C)[C@@H]1[C@H]5N(C)C(=O)N1C)[C@@H]1[C@H]4N(C)C(=O)N1C)[C@@H]1[C@H]3N(C)C(=O)N1C` [dodecamethylbambus[6]uril, Dodecamethylbambus[6]uril], in series [1], the “association constant of complex with bromide anion” value was “higher than 5×10^4 M^−1”. Further, the “association constant of complex with iodide anion” value in series [2] is listed as “higher than 5×10^4 M^−1”. Moreover, the “association constant of complex with tetrafluoroborate anion” value in series [3] is given as “higher than 5×10^4 M^−1”. Further, the “solubility of the anion free powder” value in series [4] is on record as “does not dissolve”.

The values above are taken from patent US8779120B2, “Macrocyclic derivatives of glycolurils, and methods of preparing and using the same” (Masarykova Univerzita, priority 2009, dated 2014).
